As a reminder, the IC50 is the point on the concentration scale where inhibition reaches its midpoint.

IC50 and fold induction data for 13 molecules are collected here from US20220324835A1 (Nurix Therapeutics, Inc., priority 2018, published 2022).

The target in experiment [1] is Cbl-b (Homo sapiens, UniProt Q13191). Nature of the experiment: Cbl-b inhibition assay (Cbl-b activity assay, FRET, Biological Example 1; 100 mM NaCl, 60 nM Src kinase). Type of experiment: biochemical. The note with it: upper bound stated in text lists; read-out: IC50 values in the Cbl-b inhibition assay of Biological Example 1. The essentials:
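Inhibitor activity is measured as reduced terbium-to-fluorescein FRET between streptavidin-terbium on biotinylated Cbl-b and Bodipy-fluorescein ubiquitin carried by an irreversible UbcH5B-Ub conjugate, binding of which depends on Src phosphorylation of Cbl-b.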

Experiment [2] has as its system T-cell. Nature of the experiment: IL-2 secretion from T-cells co-stimulated with anti-CD3 and anti-CD28 antibody (Biological Example 2). It counts as cell-based, human. The note with it: Homo sapiens, T-cell, primary human total T-cells, baseline = anti-CD3/anti-CD28 stimulated cells without inhibitor, read-out: IL-2 secretion, Anti-CD3/Anti-CD28 stimulation, fold change over baseline; for fold induction at 0.3 µM: 0.3 μM compound; for fold induction at 1 µM: 1 μM compound; for fold induction at 4 µM: 4 μM compound. The essentials:
(§1)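 Values are fold-change over baseline: readings (IL-2 release, CD25 staining) from inhibitor-treated T-cells divided against untreated cells […]. No detailed procedure stated.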

The test system of experiment [3] is T-cell. Nature of the experiment: CD25 cell surface staining on T-cells co-stimulated with anti-CD3 and anti-CD28 antibody (Biological Example 2). The note with it: Homo sapiens, T-cell, primary human total T-cells, baseline = anti-CD3/anti-CD28 stimulated cells without inhibitor, read-out: CD25 staining, Anti-CD3/Anti-CD28 stimulation, fold change over baseline; for fold induction at 0.3 µM: 0.3 μM compound; for fold induction at 1 µM: 1 μM compound; for fold induction at 4 µM: 4 μM compound. Type of experiment: cell-based, human. The essentials:
as §1

A value given as a limit tells only on which side of the number the result lay.

Chain of Cbl-b (Q13191 36-427): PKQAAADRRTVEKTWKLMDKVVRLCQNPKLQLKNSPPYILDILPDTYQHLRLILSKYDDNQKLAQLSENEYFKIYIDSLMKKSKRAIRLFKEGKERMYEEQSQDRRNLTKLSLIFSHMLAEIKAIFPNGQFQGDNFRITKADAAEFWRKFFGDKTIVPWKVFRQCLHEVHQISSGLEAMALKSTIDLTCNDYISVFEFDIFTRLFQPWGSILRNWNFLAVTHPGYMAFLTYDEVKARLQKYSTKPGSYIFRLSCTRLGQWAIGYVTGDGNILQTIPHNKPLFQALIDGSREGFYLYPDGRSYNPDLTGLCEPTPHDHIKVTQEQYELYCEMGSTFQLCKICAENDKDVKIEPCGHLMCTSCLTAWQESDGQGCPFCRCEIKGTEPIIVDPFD

Turning to `Cc1n[nH]c(C)c1-c1cc2c(c(C(F)(F)F)c1)CN(c1cccc(C3(Cc4nncn4C)COC3)c1)C2=O` [Compound 385, 6-(3,5-dimethyl-1H-pyrazol-4-yl)-2-(3-{3-[(4-methyl-4H-1,2,4-triazol-3-yl)methyl]oxetan-3-yl}phenyl)-4-(trifluoromethyl)-2,3-dihydro-1H-isoindol-1-one], in experiment [1], the IC50 was at most 100 nM. Besides, in experiment [2], the fold induction at 0.3 µM is 1.01 to 2.5, the fold induction at 1 µM was in the range of 2.51 to 5 and the fold induction at 4 µM is over 7.5. In experiment [3], the fold induction at 0.3 µM was 1.01 to 1.3, the fold induction at 1 µM lay in the range of 1.01 to 1.3 and the fold induction at 4 µM was in the range of 1.31 to 1.5.
As to `C[C@H](Cc1nncn1C)c1cccc(N2Cc3c(cc(CN4CC(O)C4)cc3C(F)(F)F)C2=O)c1` [Compound 393, (R)-6-((3-hydroxyazetidin-1-yl)methyl)-2-(3-(1-(4-methyl-4H-1,2,4-triazol-3-yl)propan-2-yl)phenyl)-4-(trifluoromethyl)isoindolin-1-one], the half-inhibitory concentration (IC50) in experiment [1] was at most 100 nM. In experiment [2], the fold induction at 0.3 µM lay within 2.51 to 5, the fold induction at 1 µM was over 7.5 and the fold induction at 4 µM is over 7.5. For the same molecule, in experiment [3], the fold induction at 0.3 µM was 1.01 to 1.3, the fold induction at 1 µM lay in the range of 1.31 to 1.5 and the fold induction at 4 µM lay in the range of 1.31 to 1.5.
As for `C[C@H](Cc1nncn1C)c1cccc(N2Cc3c(cc(CN4CC(C)(O)C4)cc3C(F)(F)F)C2=O)c1` [Compound 397], the IC50 in experiment [1] was at most 100 nM. For the same molecule, in experiment [2], the fold induction at 0.3 µM lay within 2.51 to 5, the fold induction at 1 µM was over 7.5 and the fold induction at 4 µM is over 7.5. In experiment [3], the fold induction at 0.3 µM lay in the range of 1.01 to 1.3, the fold induction at 1 µM lay within 1.31 to 1.5 and the fold induction at 4 µM was 1.31 to 1.5.
In the case of `C[C@H](Cc1nncn1C)c1cccc(N2Cc3c(cc(CN4CC[C@](C)(O)C4)cc3C(F)(F)F)C2=O)c1` [Compound 398, 6-(((S)-3-hydroxy-3-methylpyrrolidin-1-yl)methyl)-2-(3-((R)-1-(4-methyl-4H-1,2,4-triazol-3-yl)propan-2-yl)phenyl)-4-(trifluoromethyl)isoindolin-1-one], the half-maximal inhibitory concentration (IC50) in experiment [1] is at most 100 nM. Further, in experiment [2], the fold induction at 0.3 µM fell in the range of 2.51 to 5, the fold induction at 1 µM was in the range of 5 to 7.5 and the fold induction at 4 µM is over 7.5. In experiment [3], the fold induction at 0.3 µM fell in the range of 1.01 to 1.3, the fold induction at 1 µM was 1.31 to 1.5 and the fold induction at 4 µM was 1.31 to 1.5.
As for `C[C@H](Cc1nncn1C)c1cccc(N2Cc3c(cc(CN4CC[C@H](F)C4)cc3C(F)(F)F)C2=O)c1` [Compound 399, 6-(((S)-3-fluoropyrrolidin-1-yl)methyl)-2-(3-((R)-1-(4-methyl-4H-1,2,4-triazol-3-yl)propan-2-yl)phenyl)-4-(trifluoromethyl)isoindolin-1-one], the half-inhibitory concentration (IC50) in experiment [1] was at most 100 nM. For the same molecule, in experiment [2], the fold induction at 0.3 µM fell in the range of 5 to 7.5, the fold induction at 1 µM was over 7.5 and the fold induction at 4 µM is over 7.5. In addition, in experiment [3], the fold induction at 0.3 µM fell in the range of 1.01 to 1.3, the fold induction at 1 µM lay within 1.31 to 1.5 and the fold induction at 4 µM was 1.31 to 1.5.
Turning to `Cn1cnnc1CC1(c2cccc(N3Cc4c(cc(CN5CC[C@H](F)C5)cc4C(F)(F)F)C3=O)c2)COC1` [Compound 410, 6-{[(3S)-3-fluoropyrrolidin-1-yl]methyl}-2-(3-{3-[(4-methyl-4H-1,2,4-triazol-3-yl)methyl]oxetan-3-yl}phenyl)-4-(trifluoromethyl)-2,3-dihydro-1H-isoindol-1-one], the half-maximal inhibitory concentration (IC50) in experiment [1] was at most 100 nM. In experiment [2], the fold induction at 0.3 µM lay within 5 to 7.5, the fold induction at 1 µM was over 7.5 and the fold induction at 4 µM is over 7.5. For the same molecule, in experiment [3], the fold induction at 0.3 µM was 1.31 to 1.5, the fold induction at 1 µM lay in the range of 1.51 to 1.75 and the fold induction at 4 µM was in the range of 1.51 to 1.75.
With `C[C@@H](c1cc2c(c(C(F)(F)F)c1)CN(c1cccc(C3(Cc4nncn4C)COC3)c1)C2=O)N1CC[C@H](F)C1` [Compound 412, 6-((S)-1-((S)-3-fluoropyrrolidin-1-yl)ethyl)-2-(3-(3-((4-methyl-4H-1,2,4-triazol-3-yl)methyl)oxetan-3-yl)phenyl)-4-(trifluoromethyl)isoindolin-1-one], the IC50 in experiment [1] is at most 100 nM. In addition, in experiment [2], the fold induction at 0.3 µM was over 7.5, the fold induction at 1 µM is over 7.5 and the fold induction at 4 µM is over 7.5. For the same molecule, in experiment [3], the fold induction at 0.3 µM lay within 1.31 to 1.5, the fold induction at 1 µM was 1.51 to 1.75 and the fold induction at 4 µM is 1.51 to 1.75.
In the case of `C[C@H](c1cc2c(c(C(F)(F)F)c1)CN(c1cccc(C3(Cc4nncn4C)COC3)c1)C2=O)N1CC[C@H](F)C1` [Compound 413, 6-((R)-1-((S)-3-fluoropyrrolidin-1-yl)ethyl)-2-(3-(3-((4-methyl-4H-1,2,4-triazol-3-yl)methyl)oxetan-3-yl)phenyl)-4-(trifluoromethyl)isoindolin-1-one], in experiment [1], the IC50 is at most 100 nM. Further, in experiment [2], the fold induction at 0.3 µM was 5 to 7.5, the fold induction at 1 µM was over 7.5 and the fold induction at 4 µM is over 7.5. Besides, in experiment [3], the fold induction at 0.3 µM was 1.31 to 1.5, the fold induction at 1 µM fell in the range of 1.51 to 1.75 and the fold induction at 4 µM lay in the range of 1.31 to 1.5.
With `Cn1cnnc1CC1(c2cccc(N3Cc4c(cc(CN5CC(F)C5)cc4C(F)(F)F)C3=O)c2)COC1` [Compound 415, 6-((3-fluoroazetidin-1-yl)methyl)-2-(3-(3-((4-methyl-4H-1,2,4-triazol-3-yl)methyl)oxetan-3-yl)phenyl)-4-(trifluoromethyl)isoindolin-1-one], the IC50 in experiment [1] is at most 100 nM. Besides, in experiment [2], the fold induction at 0.3 µM was 5 to 7.5, the fold induction at 1 µM is over 7.5 and the fold induction at 4 µM is over 7.5. In addition, in experiment [3], the fold induction at 0.3 µM is 1.31 to 1.5, the fold induction at 1 µM was in the range of 1.31 to 1.5 and the fold induction at 4 µM lay in the range of 1.51 to 1.75.
Consider `Cn1cnnc1CC1(c2cccc(N3Cc4c(cc(CN5CC[C@@H](C#N)C5)cc4C(F)(F)F)C3=O)c2)COC1` [Compound 421, (R)-1-((2-(3-(3-((4-methyl-4H-1,2,4-triazol-3-yl)methyl)oxetan-3-yl)phenyl)-3-oxo-7-(trifluoromethyl)isoindolin-5-yl)methyl)pyrrolidine-3-carbonitrile], for which, in experiment [1], the IC50 was at most 100 nM. Further, in experiment [2], the fold induction at 0.3 µM lay in the range of 5 to 7.5, the fold induction at 1 µM is over 7.5 and the fold induction at 4 µM is over 7.5. For the same molecule, in experiment [3], the fold induction at 0.3 µM lay in the range of 1.01 to 1.3, the fold induction at 1 µM was in the range of 1.01 to 1.3 and the fold induction at 4 µM was in the range of 1.31 to 1.5.
Take `Cn1cnnc1CC1(c2cccc(N3Cc4c(cc(CN5CC[C@H](C#N)C5)cc4C(F)(F)F)C3=O)c2)COC1` [Compound 422, (S)-1-((2-(3-(3-((4-methyl-4H-1,2,4-triazol-3-yl)methyl)oxetan-3-yl)phenyl)-3-oxo-7-(trifluoromethyl)isoindolin-5-yl)methyl)pyrrolidine-3-carbonitrile]: in experiment [1], the IC50 was at most 100 nM. Also, in experiment [2], the fold induction at 0.3 µM is 5 to 7.5, the fold induction at 1 µM was over 7.5 and the fold induction at 4 µM was over 7.5. Besides, in experiment [3], the fold induction at 0.3 µM was in the range of 1.31 to 1.5, the fold induction at 1 µM lay in the range of 1.31 to 1.5 and the fold induction at 4 µM was 1.31 to 1.5.
As for `Cn1cnnc1CC1(c2cccc(N3Cc4c(cc(CN5C[C@H]6C[C@H]6C5)cc4C(F)(F)F)C3=O)c2)COC1` [Compound 429, 6-(((1R,5S)-3-azabicyclo[3.1.0]hexan-3-yl)methyl)-2-(3-(3-((4-methyl-4H-1,2,4-triazol-3-yl)methyl)oxetan-3-yl)phenyl)-4-(trifluoromethyl)isoindolin-1-one], the IC50 in experiment [1] is at most 100 nM. In experiment [2], the fold induction at 0.3 µM was over 7.5, the fold induction at 1 µM is over 7.5 and the fold induction at 4 µM is over 7.5. In addition, in experiment [3], the fold induction at 0.3 µM is 1.31 to 1.5, the fold induction at 1 µM is 1.31 to 1.5 and the fold induction at 4 µM is 1.51 to 1.75.
With `Cn1cnnc1CC1(c2cccc(N3Cc4c(cc(CN5CCC[C@H](F)C5)cc4C(F)(F)F)C3=O)c2)COC1` [Compound 432, 6-{[(3S)-3-fluoropiperidin-1-yl]methyl}-2-(3-{3-[(4-methyl-4H-1,2,4-triazol-3-yl)methyl]oxetan-3-yl}phenyl)-4-(trifluoromethyl)-2,3-dihydro-1H-isoindol-1-one], the 50% inhibitory concentration (IC50) in experiment [1] was at most 100 nM. In experiment [2], the fold induction at 0.3 µM was over 7.5 and the fold induction at 1 µM is over 7.5. Besides, in experiment [3], the fold induction at 0.3 µM is 1.31 to 1.5 and the fold induction at 1 µM was in the range of 1.31 to 1.5.
